Source: US9963476B2, “Antioxidant compound having anti atherosclerotic effect and preparation thereof” (Council of Scientific and Industrial Research, priority 2015, dated 2018)

Key:
[1] = system: caspase-3 and -8 activation in HAEC; assay: Caspase-3 and -8 activity in HAEC lysates; format: cell-based, human; conditions: 2.5 μM pretreatment
Experimental: HAEC were washed twice with cold DPBS and lysed in buffer containing 10-mM Tris-HCl, 10-mM NaH2PO4/Na2HPO4 (pH, 7.5). 130-mM NaCl. 1% Triton, and 10-mM sodium pyrophosphate. Cell lysates were incubated with either with caspase-3 fluorogenic substrate (N-acetyl-Asp-Glu-Val-Asp-7-amido-4-methylcoumarin) or caspase-8 fluorogenic substrate (N-acetyl-Ileu-Glu-Thr-Asp-7 amido-4-methylcoumarin) at 37° C. for 1 h. The 7-amido-4-methyl-coumarin liberated was measured in a multi mode reader (PerkinElmer) with λex=380 nm and λem=460 nm.

[2] = system: human aortic endothelial cells (HAEC); assay: Trypan blue cell viability assay, oxidant-induced endothelial cell death; format: cell-based; conditions: 2.5 μM, 2 h pretreatment, H2O2 500 μM or Ang-II 500 nM, 24 h
Experimental: Human aortic endothelial cells (HAECs) were obtained from ATCC (Manassas, Va.) and maintained (37° C. 5% CO2) in basal medium supplemented with 10% FBS, VEGF (5 ng/mL), hEGF (5 ng/mL), hFGF (5 ng/mL), IGF-1 (15 ng/mL), ascorbic acid (50 μg/mL), hydrocortisone (1 μg/mL), amphotericin (15 ng/mL), gentamicin (30 ng/mL) and heparin (0.75 Units/mL). Cells used in this study were between passages 4 and 9. Esculetin, Mito-Esc, TPP and nitric oxide synthase inhibitor (L-NAME) were added 2 h before the addition of H2O2 or Ang-II.
At the end of the treatments, cells were harvested and re-suspended in 0.4% trypan blue (Life Technologies) and percent cell viability was counted using cell countess chamber (Life Technologies).
For this, cells were pretreated for 2 h with either Mito-Esc or esculetin before they were incubated with either H2O2 or Ang-II.

[3] = system: nitric oxide generation in HAEC; assay: Intracellular nitric oxide levels by DAF-2DA fluorescence; format: cell-based, human; conditions: H2O2 500 μM, 2.5 μM, 4 h
Experimental: Intracellular nitric oxide levels were monitored by using the Diaminofluorescein-diacetate (DAF-2DA) fluorescence probe. After the treatments, cells were washed with DPBS and incubated in fresh culture medium without fetal bovine serum (FBS). DAF-2DA was added at a final concentration of 5 μM, and the cells were incubated for 30 minutes. The cells were washed twice with DPBS and maintained in culture medium. Fluorescence was monitored by using Olympus fluorescence microscope with FITC filter (λex=488 nm and […]). Fluorescence intensity was calculated by Image-Pro plus7.0 software.
To gain mechanistic insight on Mito-Esc-mediated protection of endothelial cells from oxidant-induced endothelial cell death, initially we hypothesized that Mito-Esc may augment intracellular nitric oxide generation. To study this, HAEC were treated with both Mito-Esc and esculetin in the presence or absence of H2O2 for a period of 4 h and nitric oxide (NO) levels were monitored by DAF-2 derived green fluorescence. Previously, it has been shown that DAF-2 forms a fluorescent triazole-type product in the presence of an oxidant derived from nitric oxide and oxygen interaction (Proc. Natl. Acad. Sci. USA 99: 11127-11132; 2002.; Am. J. Physiol. Regul. Integ. Comp. Physiol. 286:R344-R431; 2004). […] Next, we investigated the possible role of endothelial nitric oxide synthase (eNOS) in mediating the Mito-Esc induced NO generation in HAEC. For this, endothelial cells were treated with various concentrations of Mito-Esc (1-5 μM) for a period of 8 h. […] To further substantiate the results of DAF fluorescence, eNOS phosphorylation was measured in HAEC incubated with either with H2O2 or Ang-II for 8 h in cells pretreated with Mito-Esc or native esculetin. It was observed that both H2O2 and Ang-II caused a reduction in Phospho eNOS (Ser-1177) levels (FIG. 4D). Ang-II treatment imposed a drastic inhibition of phospho-eNOS levels when compared to H2O2 treatment in endothelial cells (FIG. 4D).

[4] = system: AMPK1-α phosphorylation (Thr-172); assay: Western blot of AMPK phosphorylation in HAEC; format: cell-based, human; conditions: H2O2 500 μM, 2.5 μM, 8 h
Experimental: Previously, it was shown that AMPK co-immunoprecipitates with cardiac endothelial NO synthase (eNOS) and phosphorylates Ser-1177 in the presence of Ca^2+-calmodulin (CaM) to activate eNOS both in vitro and during ischaemia in rat hearts (FEBS Lett. (1999) 443:285-289). To test whether Mito-Esc mediates increased phosphorylation of eNOS through AMPK activation, initially, HAEC were treated various concentrations of Mito-Esc (1-5 μM) for 8 h and AMPK1-α phosphorylation (Thr-172) levels were measured. […] Next, we investigated the phospho-AMPK1-α levels in HAEC treated with H2O2 in the presence or absence of either Mito-Esc or native esculetin.

[5] = system: HAEC; assay: Cellular uptake: Mito-Esc/esculetin quantified by ESI-MS in cytosolic and mitochondrial fractions of HAEC; format: in vitro ADME, human; conditions: HAEC, 2.5 μM, 24 h
Experimental: After the treatment, cells were washed thrice with PBS. Similarly Mito-Esculetin+ Ang-II treatment group, Ang-II alone treatment group and control Apo E^−/− mice aortic tissue was taken. The isolation of mitochondrial and cytosolic extracts was carried out using a commercially available Proteo Extract Cytosol/Mitochondria Fractionation Kit (Cat. no. QIA88-Merck, USA) according to manufacturer's instructions. Initially, mitochondrial and cytosolic fractions were separated using a commercially available kit as mentioned elsewhere. Mito-Esc was quantified in the mitochondrial and cytosolic fractions obtained from HAEC and aorta of ApoE^−/− mice of different treatment groups as mentioned in Animal Experiments section (Table-1). Electrospray ionization (ESI)-MS. ESI-MS (positive mode) measurements were performed using a quadrupole time-of-flight mass spectrometer (QSTAR XL, Applied Biosystems/MDS Sciex, Foster City, Calif., USA). The data acquisition was under the control of Analyst QS software (Applied Biosystems). For the CID (collision-induced dissociation) experiments, the precursor ions were selected using the quadrupole analyzer and the product ions were analyzed using the TOF analyzer.

[6] = system: Ang-II-induced H2O2 production in HAEC; assay: H2O2 levels by Amplex red assay; format: cell-based, human; conditions: Ang-II 500 nM, 16 h
Experimental: Amplex red reagent was used to detect the released H2O2 from cells. […] Immediately, formation of resorufin fluorescence was measured in multi mode reader (PerkinElmer) with λex=540 and λem=585.
Ang-II is known to increase oxidative stress through increased production of H2O2 (Doughan A K, Harrison D G, Dikalov S I. Circ Res (2008) 102:488-96). […] Further, we assessed the effect of Mito-Esc on H2O2-induced mitochondrial membrane depolarization. HAEC were treated with H2O2 (500 μM) in the presence or absence of Mito-Esc for a period of 16 h and mitochondrial membrane potential was measured using a mitochondrial membrane sensor kit. Mito-Sensor is a cationic dye that fluoresces differently in apoptotic and nonapoptotic cells. […] In apoptotic cells, membrane potentials are altered and the Mito-Sensor dye cannot accumulate in mitochondria and, thus, remain as monomers leading to a green fluorescence.

[7] = system: Ang-II-induced atherosclerosis in ApoE−/− mice; assay: Serum lipid profile of Ang-II treated ApoE−/− mice; format: in vivo; conditions: serum, ApoE−/− mice, 45 days; Ang-II alone or Ang-II + Mito-Esc
Experimental: Experiments were conducted in 2-month-old male apolipoprotein E knockout (ApoE^−/−) mice according to the guidelines formulated for care and use of animals in scientific research (ICMR, New Delhi, India) at a CPCSEA (Committee for the Purpose of Control and Supervision of Experiments on Animals) registered animal facility. […] Animals were randomly divided into 3 groups each n=7:1) control 2) Ang-II treatment and 3) Mito-Esculetin+Ang-II treatment. Ang-II and Mito-Esculetin treatment groups received Ang-II (sigma) at a dose of 1.44 mg/kg/day for 6 weeks through sub-cutaneous route where as control group received normal saline. Mito-Esculetin treatment group received the compound at a dose of 0.5 mg/kg/day in normal drinking water. All animals were fed on normal chow throughout the study. After 6 weeks, all groups of animals were sacrificed as per standard protocols for euthanasia.
We further analyzed the vascular remodelling employing histological stains in tissue sections of thoracic aortas. […] In tune with this, we have also measured Mac-3 levels by flow cytometry.

Compound: O=c1ccc2cc(O)c(O)cc2o1 [Esculetin, 6,7-dihydroxycoumarin, reference compound]
- H2O2 and Ang-II-induced caspase-3 and -8 activation [1]: marginal effect
- oxidant (H2O2 and Ang-II)-induced endothelial cell death [2]: but not esculetin significantly inhibited
- H2O2-mediated depletion of NO levels [3]: did not show any noticeable effect
- AMPK1-α phosphorylation in the presence of H2O2 [4]: significantly decreased
- Cytosolic fraction [5]: 6249 ± 235 nmol/mg protein

Compound: c1ccc(P(c2ccccc2)c2ccccc2)cc1 [TPP^+, triphenylphosphonium cation]
- oxidant (H2O2 and Ang-II)-induced endothelial cell death [2]: did not have any appreciable cytotoxic/cytoprotective effect

Compound: Angiotensin-II (DRVYIHPF; Angiotensin-2; UniProt P01019 25-32, looked up) [Ang-II, inducer of oxidative stress and atherosclerosis in the models, reference compound]
- H2O2 generation compared to untreated conditions [6]: around 2.7 fold
- HDL [7]: 02.21 ± 1.2 mg/dL
- LDL [7]: 423.93 ± 29.6 mg/dL
- Total Cholesterol [7]: 656.19 ± 34.2 mg/dL
- Triglycerides [7]: 234.50 ± 21.5 mg/dL
- VLDL [7]: 46.9 ± 2.2 mg/dL
